What is called EC50 is the concentration giving half of the maximal effect.

Active and inactive are the calls of the source.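 The calls were made as follows: active = compounds whose fitted half-effect concentration on CIT2 GFP level is 33 micromolar or lower; inactive = the rest.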

For one assay, the system named is S. cerevisiae CIT2-GFP strain, flow cytometry GFP, 3 h. Kind of assay: yeast TOR pathway CIT2-GFP reporter analogs – flow cytometry, KU set 2, dose response, SAR follow-up (AID 504461).
Conditions: not given
As to `CNc1nc(N)c(C(=O)c2ccc(C)c(C)c2)c(Nc2cccc(Cl)c2)n1`, the EC50 was 129 µM (inactive). On to `CCNc1nc(N)c([N+](=O)[O-])c(Nc2cccc(Cl)c2)n1`, for which the EC50 was 73.5 µM (inactive).

System in the next assay: not listed separately
The assay is described as above. The conditions noted are these: S. cerevisiae CIT2-GFP strain, flow cytometry GFP, 3 h; at 100 µM (top of the series). (Flow cytometry measures light scatter and fluorescence of single cells or particles in a stream.)
Turning to `CNc1nc(N)c([N+](=O)[O-])c(Nc2cccc(Oc3ccccc3)c2)n1`, the GFP fluorescence (kMESF) was 3.53 kMESF (inactive). On the same count and under the same terms, the result for `CNc1nc(NC2CCCCC2)c([N+](=O)[O-])c(N2CCOCC2)n1` reads 3.39 kMESF (inactive). Regarding `CCNc1nc(NC2CCCCC2)c([N+](=O)[O-])c(N2CCOCC2)n1`, the GFP fluorescence (kMESF) was 3.39 kMESF (inactive). As for `CNc1nc(N)c([N+](=O)[O-])c(Nc2ccccc2Br)n1`, the GFP fluorescence (kMESF) is 3.6 kMESF (inactive).

For the compound `CNc1nc(N)c([N+](=O)[O-])c(Nc2cccc(OC)c2)n1`, the GFP fluorescence (kMESF) is 5.3 kMESF (inactive).

In the case of `CNc1nc(NC)c([N+](=O)[O-])c(Nc2cccc(Cl)c2)n1`, the GFP fluorescence (kMESF) is 3.32 kMESF (inactive). `CNc1nc(N)c([N+](=O)[O-])c(Nc2ccccc2F)n1`: the GFP fluorescence (kMESF) was 4.24 kMESF (inactive).

Regarding `CNc1nc(N)c([N+](=O)[O-])c(Nc2cccc(Br)c2)n1`, the GFP fluorescence (kMESF) is 5.3 kMESF (inactive).

The same assay, now with this note: S. cerevisiae CIT2-GFP strain, flow cytometry GFP, 3 h; at 300 µM (top of the series).
On to `CNc1nc(N)cc(Oc2cccc(Cl)c2)n1`, for which the GFP fluorescence (kMESF) was 3.55 kMESF (inactive).

Turning to `COC(=O)c1cccc(-c2cc(Nc3cc(C)[nH]n3)nc(NCc3ccccc3)n2)c1`, the GFP fluorescence (kMESF) is 4.85 kMESF (inactive). Take `Cc1cc(Nc2cc(Nc3ccccc3)nc(NCc3ccccc3)n2)n[nH]1`: the GFP fluorescence (kMESF) is 4.57 kMESF (inactive).

In the case of `CNc1nc(N)cc(Nc2cccc(Cl)c2)n1`, the GFP fluorescence (kMESF) was 4.78 kMESF (inactive).

`COc1cccc(-c2cc(Nc3cc(C)[nH]n3)nc(NCc3ccccc3)n2)c1`: the GFP fluorescence (kMESF) is 4.64 kMESF (inactive). Consider `CCOC(=O)c1c(N)nc(NC)nc1Nc1cccc(F)c1`, for which the GFP fluorescence (kMESF) is 5.12 kMESF (inactive). For the compound `O=[N+]([O-])c1c(NC2CCCCC2)nc(NCc2ccccc2)nc1N1CCOCC1`, the GFP fluorescence (kMESF) was 4.5 kMESF (inactive).

In the case of `COc1ccccc1-c1cc(Nc2cc(C)[nH]n2)nc(NCc2ccccc2)n1`, the GFP fluorescence (kMESF) was 4.5 kMESF (inactive). On to `CNc1nc(N)cc(Nc2ccccc2F)n1`, for which the GFP fluorescence (kMESF) is 5.53 kMESF (inactive).

In the case of `Cc1cc(Nc2cc(-c3ccccc3)nc(NCc3ccccc3)n2)n[nH]1`, the GFP fluorescence (kMESF) was 4.23 kMESF (inactive).
